In BindingDB's records for doi:10.1073/pnas.88.17.7491 (Duke University, 1991):

target: D(1A) dopamine receptor (Homo sapiens, UniProt P21728)
Sequence (P21728 whole entry): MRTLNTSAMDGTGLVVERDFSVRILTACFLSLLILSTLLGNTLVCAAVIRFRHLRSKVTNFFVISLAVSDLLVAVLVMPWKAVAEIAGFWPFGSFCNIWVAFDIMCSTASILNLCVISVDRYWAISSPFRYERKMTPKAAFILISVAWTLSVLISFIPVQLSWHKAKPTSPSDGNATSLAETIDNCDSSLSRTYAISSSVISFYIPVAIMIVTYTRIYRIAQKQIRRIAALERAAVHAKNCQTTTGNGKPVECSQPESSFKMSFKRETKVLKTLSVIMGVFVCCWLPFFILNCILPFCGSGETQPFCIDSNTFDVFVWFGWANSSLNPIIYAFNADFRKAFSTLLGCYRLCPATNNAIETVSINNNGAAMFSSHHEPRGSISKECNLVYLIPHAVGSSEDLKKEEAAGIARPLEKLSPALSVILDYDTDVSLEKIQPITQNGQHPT

| Structure (SMILES) | Ki |
| --- | --- |
| CN1CCN(C2=Nc3cc(F)ccc3Cc3ccccc32)CC1 | 75 nM |
| OCCC1CCN(CCC=C2c3ccc(F)cc3Sc3ccc(C(F)(F)F)cc32)CC1 [CAS_60197-32-2] | 0.65 nM |
| O=C(O)c1ccccc1C(=O)Nc1cccc2ccccc12 [NPA,(+)] | 1540 nM |
